Measurements taken from PubChem BioAssay AID1117265 (The Scripps Research Institute Molecular Screening Center, 2014).
Calls of active or inactive are those of the source. How the calls were made is not given here.

Molecular target: Trace amine-associated receptor 1 (Homo sapiens) (UniProt Q96RJ0)
Test: human TAAR1 antagonists, late-stage follow-up, cell-based, fluorescence, MedChem round 2 (AID 1117265)
Conditions: TAAR1-expressing cells, antagonist mode

Chain of Trace amine-associated receptor 1 (Homo sapiens) (Q96RJ0 whole entry, looked up): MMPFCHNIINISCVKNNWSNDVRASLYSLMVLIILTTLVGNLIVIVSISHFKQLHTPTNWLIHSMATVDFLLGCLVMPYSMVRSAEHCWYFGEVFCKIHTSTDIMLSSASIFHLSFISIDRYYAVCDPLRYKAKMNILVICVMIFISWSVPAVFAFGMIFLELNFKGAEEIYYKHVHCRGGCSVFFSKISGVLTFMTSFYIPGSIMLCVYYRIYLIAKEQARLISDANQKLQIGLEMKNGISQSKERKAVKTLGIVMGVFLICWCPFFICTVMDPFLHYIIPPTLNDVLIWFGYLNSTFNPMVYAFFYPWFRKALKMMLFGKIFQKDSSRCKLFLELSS

Structure (SMILES) | IC50
CC(CN1CCCC1Cc1ccccc1)C(=O)c1ccc2c(c1)OCCO2 (configuration not stated) | 2960 nM
N#Cc1c(C(F)(F)F)cc(-c2ccc(Cl)cc2)nc1SCC(=O)N1CCCC1 | 1070 nM
N#Cc1c(C(F)(F)F)cc(-c2ccc(Cl)cc2)nc1SCC(=O)N1CCCCCC1 | > 29900 nM (inactive)
Cc1ccc(C(=O)CCN2CCC(c3ccccc3)C2)cc1 (configuration not stated) | 672 nM

Second part, the molecule after the results:

IC50 | Structure (SMILES)
765 nM | O=C(CCN1CCC(c2ccccc2)C1)c1ccccc1 (configuration not stated)
419 nM | COc1cc(C(=O)CCN2CCC(c3ccccc3)C2)cc(OC)c1OC (configuration not stated)
3.74 nM | N#Cc1c(C(F)(F)F)cc(-c2ccc(Cl)cc2)nc1SCC(=O)Nc1ncccn1
